Laboratory results: patent US20260217701A1, “SELECTIVE BET INHIBITORS AND USES THEREOF” (Tay Therapeutics Limited, priority 2022, published 2026)
Where “and” joins values, the source holds several entries; their conditions need not be identical. Equal entries are not always repeated. Entries after “also recorded” stand apart in the source; their conditions may differ.

Assays:
[1] = system: Col1a1, TGB-b1, MCP-1, IL-1b, IL-6, IL-17, TNF-α, Timp1; assay: UUO study: tissue RNA levels of biomarkers; format: in vivo, rats
Text: Tables 29A-29B and FIGS. 28A-28B show tissue RNA levels of various biomarkers (Col1a1, TGB-b1, MCP-1, IL-1b, IL-6, IL-17, TNF-α, and Timp1) in sham rats (black bar in FIG. 28A; square shape in FIG. 28B), UUO rats treated with vehicle (grey bar in FIG. 28A; circle shape in FIG. 28B), and UUO rats treated with Compound A (white bar in FIG. 28A; triangle shape in FIG. 28B). […] FIG. 28C further illustrates gene expression levels of Col1a1, TGB-b1, IL-1b, IL-17, MCP-1, and IL-6 relative to the vehicle control. […] To place this reduction in context, IL-6 is said to be a significant contributor to a continued inflammatory response in certain nephritis conditions.

[2] = SLE (lupus) model: body weight; format: in vivo, MRL/MpJ-Faslpr mice
Protocol: Female MRL/MpJ-Faslpr mice (The Jackson Laboratory) were used to assess the efficacy of Compound A in treating lupus. Starting when animals were 10 weeks of age, protein concentration in urine was measured using urine dipsticks.
At the start of the study, each group in the study had two animals that were 9 weeks old, and all others were 10 weeks old. Dosing of all animals with the test compounds began when the older animals were 11 weeks old. […] […] Dosing was at a consistent time each dosing day throughout the study.
Compound A may be formulated as illustrated in Experimental Method A (see Table 2E.). […] A stock solution of Compound A in DMSO (stock solution concentration of Compound A of 40 mg/mL) was prepared and aliquots for weekly preparations were frozen at −20° C. On each preparation day, a stock solution aliquot was thawed and diluted with other vehicle components to the desired concentration. Formulated Compound A and vehicle were at room temperature for dosing.
The study began when the older animals were 11 weeks old, and concluded when the older animals were 19 weeks old. Body weight was recorded once a week, with the exception of two weight measurements taken the first week of the study (when the older animals were 11 weeks old). Proteinuria was measured in the urine of animals with urine dipsticks once a week, starting when the older animals were 10 weeks old. […] Blood samples were taken retro-orbitally at the start of the study to establish a baseline (15 animals, 3 per group), and when the older animals were 16 weeks (all animals) and when animals were 19 weeks (all animals) at the conclusion of the study. Blood urea nitrogen (BUN) was measured in all animals at study termination in blood samples. After blood collection, animals were euthanized, perfused with PBS, and the left kidneys were collected and weighed and fixed in 10% buffered formalin. Left kidneys were then processed to a formalin-fixed, paraffin-embedded (FFPE) block, and histology was analyzed in Periodic Acid-Schiff-stained sections (1 section per slide), using the criteria described in Alperovich et al., Lupus, 16:18-24 (2007). Right kidneys were weighed and snap-frozen at −80° C. Spleens were also collected and weighed. SLE in animals treated with a BET inhibitor and vehicle.

[3] = UUO rats + Compound A, N=8, relative to UUO + Vehicle = 1.00
[4] = UUO rats, tissue, Compound A 10mg/kg QD, individual animals, 10 mg/kg

In the case of `Cn1cc(-c2ccccc2)c(-c2cn(C)c(=O)c3[nH]c(-c4cnn(C(F)(F)F)c4)cc23)cc1=O` [Compound A, 6-methyl-4-(1-methyl-2-oxo-5-phenyl-1,2-dihydropyridin-4-yl)-2-(1-(trifluoromethyl)-1H-pyrazol-4-yl)-1,6-dihydro-7H-pyrrolo[2,3-c]pyridin-7-one], the “Col1a1 RNA level, Mean ± SEM” value [1, 3] is reported as 0.39 ± 0.04, the “IL-1b RNA level, Mean ± SEM” value [1, 3] is reported as 0.31 ± 0.03 and the “IL-6 RNA level, Mean ± SEM” value [1, 3] is reported as 0.11 ± 0.02. The “IL-17 RNA level, Mean ± SEM” value [1, 3] was 0.35 ± 0.07, the “MCP-1 RNA level, Mean ± SEM” value [1, 3] was 0.33 ± 0.05 and the “TGF-b1 RNA level, Mean ± SEM” value [1, 3] was 0.52 ± 0.05. For the same compound, the “TNF-a RNA level, Mean ± SEM” value [1, 3] was 1.00 ± 0.11, the “Timp1 RNA level, Mean ± SEM” value [1, 3] was 0.54 ± 0.09 and the “Col1a1 RNA level, Normalized Fold Change” value [1, 4] was 0.51 and 0.31 and 0.19 and 0.50 (2×) and 0.40 and 0.34 and 0.41. The “IL-1b RNA level, Normalized Fold Change” value [1, 4] was 0.37 and 0.28 and 0.24 (3×) and 0.45 and 0.23 and 0.40, the “IL-6 RNA level, Normalized Fold Change” value [1, 4] was 0.11 (2×) and 0.09 and 0.04 and 0.14 and 0.18 and 0.13 and 0.05 and the “IL-17 RNA level, Normalized Fold Change” value [1, 4] was 0.37 and 0.14 and 0.26 and 0.51 and 0.12 and 0.45 and 0.72 and 0.20. The “MCP-1 RNA level, Normalized Fold Change” value [1, 4] was 0.48 and 0.24 and 0.18 and 0.34 and 0.44 and 0.25 and 0.50 and 0.20, the “TGF-b1 RNA level, Normalized Fold Change” value [1, 4] was 0.71 and 0.42 and 0.28 and 0.58 and 0.64 (2×) and 0.40 and 0.50 and the “TNF-a RNA level, Normalized Fold Change” value [1, 4] was 1.50 and 1.16 and 1.00 and 0.79 and 1.05 and 0.62 and 1.20 and 0.64. The “Timp1 RNA level, Normalized Fold Change” value [1, 4] was 0.83 and 0.41 and 0.36 and 0.72 (2×) and 0.66 and 0.09 and 0.52, the “Tissue RNA level of TNF-α” value ([1]; UUO rats, 10 mg/kg) was “no observable effect” and the “Tissue RNA levels of Col1a1, TGB-b1, MCP-1, IL-1b, IL-6, IL-17, Timp1” value ([1]; UUO rats, 10 mg/kg PO QD, vs vehicle, 10 mg/kg) was “reduced levels of Colla1, TGB-b1, MCP-1, IL-1b, IL-6, IL-17, and Timp1; also recorded: markedly lower”. The “Relative end body weight (% of Week 11) ± SEM” value ([2]; 1 mg/kg) was 114.5% ± 1.5%, the “Weight gain relative to control groups” value ([2]; 1 mg/kg and 10 mg/kg) was “improved weight gains relative to the control groups” and the “Relative end body weight (% of Week 11) ± SEM” value ([2]; 3 mg/kg) was 110.7% ± 2.1%. For the same compound, the “Relative end body weight (% of Week 11) ± SEM” value ([2]; 10 mg/kg) was 114.4% ± 1.6%, the Mean Body Weight ([2]; Compound A 1 mg/kg PO QD, Week 11) was 35.2 g and the Mean Body Weight ([2]; Compound A 1 mg/kg PO QD, Week 12) was 36.4 g. It also gave a Mean Body Weight ([2]; Compound A 1 mg/kg PO QD, Week 13) of 37.6 g, a Mean Body Weight ([2]; Compound A 1 mg/kg PO QD, Week 14) of 38.5 g and a Mean Body Weight ([2]; Compound A 1 mg/kg PO QD, Week 15) of 38.9 g. For the same compound, the Mean Body Weight ([2]; Compound A 1 mg/kg PO QD, Week 16) was 40.0 g, the Mean Body Weight ([2]; Compound A 1 mg/kg PO QD, Week 17) was 39.5 g and the Mean Body Weight ([2]; Compound A 1 mg/kg PO QD, Week 18) was 39.7 g. It also gave a Mean Body Weight ([2]; Compound A 1 mg/kg PO QD, Week 19) of 40.2 g, a Mean Body Weight ([2]; Compound A 3 mg/kg PO QD, Week 11) of 35.0 g and a Mean Body Weight ([2]; Compound A 3 mg/kg PO QD, Week 12) of 35.0 g. For the same compound, the Mean Body Weight ([2]; Compound A 3 mg/kg PO QD, Week 13) was 36.5 g, the Mean Body Weight ([2]; Compound A 3 mg/kg PO QD, Week 14) was 37.4 g and the Mean Body Weight ([2]; Compound A 3 mg/kg PO QD, Week 15) was 37.9 g. For the same compound, the Mean Body Weight ([2]; Compound A 3 mg/kg PO QD, Week 16) was 38.7 g, the Mean Body Weight ([2]; Compound A 3 mg/kg PO QD, Week 17) was 38.6 g and the Mean Body Weight ([2]; Compound A 3 mg/kg PO QD, Week 18) was 38.1 g. For the same compound, the Mean Body Weight ([2]; Compound A 3 mg/kg PO QD, Week 19) was 38.6 g, the Mean Body Weight ([2]; Compound A 10 mg/kg PO QD, Week 11) was 35.1 g and the Mean Body Weight ([2]; Compound A 10 mg/kg PO QD, Week 12) was 35.6 g. The Mean Body Weight ([2]; Compound A 10 mg/kg PO QD, Week 13) was 37.1 g, the Mean Body Weight ([2]; Compound A 10 mg/kg PO QD, Week 14) was 37.8 g and the Mean Body Weight ([2]; Compound A 10 mg/kg PO QD, Week 15) was 38.8 g. The Mean Body Weight ([2]; Compound A 10 mg/kg PO QD, Week 16) was 39.3 g, the Mean Body Weight ([2]; Compound A 10 mg/kg PO QD, Week 17) was 39.3 g and the Mean Body Weight ([2]; Compound A 10 mg/kg PO QD, Week 18) was 39.4 g. The Mean Body Weight ([2]; Compound A 10 mg/kg PO QD, Week 19) was 39.9 g.
